Where “and” joins values, the source holds several entries; their conditions need not be identical. Equal entries are not always repeated.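 Briefly, cells in 96-well plates were exposed to five compound concentrations for 48 h, and endpoints were estimated by linear interpolation. GI50 = concentration required for 50% inhibition of growth. TGI denotes the concentration required for complete inhibition of growth.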
What was measured:
Test in all cases: NCI anticancer screen, dose series, 48 h
MDA-MB-468 breast = test system: MDA-MB-468 breast
NCI-H226 lung = test system: NCI-H226 lung
T-47D breast = test system: T-47D breast
UO-31 renal = test system: UO-31 renal
SK-MEL-5 melanoma = test system: SK-MEL-5 melanoma
DU-145 prostate = test system: DU-145 prostate
SK-MEL-28 melanoma = test system: SK-MEL-28 melanoma
ACHN renal = test system: ACHN renal
MDA-MB-231 breast = test system: MDA-MB-231 breast
HOP-62 NSCLC = test system: HOP-62 NSCLC
OVCAR-5 ovarian = test system: OVCAR-5 ovarian
SK-OV-3 ovarian = test system: SK-OV-3 ovarian
PC-3 prostate = test system: PC-3 prostate
HCT-15 colon = test system: HCT-15 colon
HCT-116 colon = test system: HCT-116 colon
NCI/ADR-RES ovarian = test system: NCI/ADR-RES ovarian
SNB-19 CNS = test system: SNB-19 CNS
M14 melanoma = test system: M14 melanoma
A549 NSCLC = test system: A549 NSCLC
SF-295 CNS = test system: SF-295 CNS
NCI-H522 lung = test system: NCI-H522 lung
A498 renal = test system: A498 renal
RPMI-8226 leukemia = test system: RPMI-8226 leukemia
CCRF-CEM leukemia = test system: CCRF-CEM leukemia
OVCAR-8 ovarian = test system: OVCAR-8 ovarian
MDA-MB-435 = test system: MDA-MB-435
KM12 colon = test system: KM12 colon
SNB-75 CNS = test system: SNB-75 CNS
SF-539 CNS = test system: SF-539 CNS
TK-10 renal = test system: TK-10 renal
BT-549 breast = test system: BT-549 breast
U251 CNS = test system: U251 CNS
IGROV1 ovarian = test system: IGROV1 ovarian
LOX IMVI melanoma = test system: LOX IMVI melanoma
HOP-92 NSCLC = test system: HOP-92 NSCLC
UACC-257 melanoma = test system: UACC-257 melanoma
UACC-62 melanoma = test system: UACC-62 melanoma
CAKI-1 renal = test system: CAKI-1 renal
NCI-H460 lung = test system: NCI-H460 lung
HS 578T breast = test system: HS 578T breast
NCI-H23 lung = test system: NCI-H23 lung
MOLT-4 leukemia = test system: MOLT-4 leukemia
MALME-3M melanoma = test system: MALME-3M melanoma
SF-268 CNS = test system: SF-268 CNS
786-0 renal = test system: 786-0 renal
OVCAR-4 ovarian = test system: OVCAR-4 ovarian
OVCAR-3 ovarian = test system: OVCAR-3 ovarian
HCC-2998 colon = test system: HCC-2998 colon
RXF 393 renal = test system: RXF 393 renal
EKVX NSCLC = test system: EKVX NSCLC
SK-MEL-2 melanoma = test system: SK-MEL-2 melanoma
SN12C renal = test system: SN12C renal

## Nc1nc(Nc2ccc(C3CCC(N4CCOCC4)CC3)cc2)nn1-c1ccccn1 (stereo unspecified)
MDA-MB-468 breast
  GI50: 11.2 µM
  TGI: > 100 µM

## Cc1ccc(S(=O)(=O)Nc2cccc3[nH]c(C(F)(F)F)nc23)cc1
MDA-MB-468 breast
  GI50: 0.536 µM
  TGI: 26.1 µM

## COc1ccc2[nH]cc(-c3cc(N)n4nc(-c5c[nH]c6ccccc56)cc4n3)c2c1
NCI-H226 lung
  GI50: 11.5 µM
  TGI: 28 µM
T-47D breast
  GI50: 3.05 µM
  TGI: 26.3 µM
UO-31 renal
  GI50: 1.86 µM
  TGI: 4.65 µM
SK-MEL-5 melanoma
  GI50: 1.7 µM
  TGI: 3.07 µM
DU-145 prostate
  GI50: 5.19 µM
  TGI: 19.3 µM
SK-MEL-28 melanoma
  GI50: 1.72 µM
  TGI: 3.1 µM
ACHN renal
  GI50: 2.62 µM
  TGI: 6.99 µM
MDA-MB-231 breast
  GI50: 1.91 µM
  TGI: 3.58 µM
HOP-62 NSCLC
  GI50: 3.14 µM
  TGI: 7.88 µM
OVCAR-5 ovarian
  GI50: 3.86 µM
  TGI: 13.4 µM
SK-OV-3 ovarian
  GI50: 15 µM
  TGI: 33.1 µM
MDA-MB-468 breast
  GI50: 1.66 µM
  TGI: 3.12 µM
PC-3 prostate
  GI50: 3.33 µM
  TGI: 14.8 µM
HCT-15 colon
  GI50: 1.66 µM
  TGI: 3.33 µM
HCT-116 colon
  GI50: 1.75 µM
  TGI: 3.12 µM
NCI/ADR-RES ovarian
  GI50: 5.84 µM
  TGI: 24 µM
SNB-19 CNS
  GI50: 4.25 µM
  TGI: 14.8 µM
M14 melanoma
  GI50: 1.79 µM
  TGI: 3.32 µM
A549 NSCLC
  GI50: 3.14 µM
  TGI: 13.9 µM
SF-295 CNS
  GI50: 1.83 µM
  TGI: 3.55 µM
NCI-H522 lung
  GI50: 1.64 µM
  TGI: 3.51 µM
A498 renal
  GI50: 11.4 µM
  TGI: 24.4 µM
RPMI-8226 leukemia
  GI50: 2.37 µM
  TGI: 5.51 µM
CCRF-CEM leukemia
  GI50: 2.6 µM
  TGI: 6.46 µM
OVCAR-8 ovarian
  GI50: 4.12 µM
  TGI: 33.3 µM
MDA-MB-435
  GI50: 2.04 µM
  TGI: 4.11 µM
KM12 colon
  GI50: 2.21 µM
  TGI: 5.01 µM
SNB-75 CNS
  GI50: 11.2 µM
  TGI: 29.2 µM
SF-539 CNS
  GI50: 1.68 µM
  TGI: 3.05 µM
TK-10 renal
  GI50: 3.53 µM
  TGI: 12.1 µM
BT-549 breast
  GI50: 13.3 µM
  TGI: 26.1 µM
U251 CNS
  GI50: 2.08 µM
  TGI: 4.67 µM
IGROV1 ovarian
  GI50: 4.52 µM
  TGI: 17 µM
LOX IMVI melanoma
  GI50: 1.64 µM
  TGI: 3.01 µM
HOP-92 NSCLC
  GI50: 3.04 µM
  TGI: 11.9 µM
UACC-257 melanoma
  GI50: 1.73 µM
  TGI: 3.21 µM
UACC-62 melanoma
  GI50: 1.73 µM
  TGI: 3.16 µM
CAKI-1 renal
  GI50: 2.32 µM
  TGI: 6.44 µM
NCI-H460 lung
  GI50: 2.74 µM
  TGI: 7.59 µM
HS 578T breast
  GI50: 6.69 µM
  TGI: > 100 µM
NCI-H23 lung
  GI50: 3.15 µM
  TGI: 10.2 µM
MOLT-4 leukemia
  GI50: 2.25 µM
  TGI: 6.05 µM
MALME-3M melanoma
  GI50: 1.7 µM
  TGI: 3.07 µM
SF-268 CNS
  GI50: 9.09 µM
  TGI: 37.3 µM
786-0 renal
  GI50: 1.57 µM
  TGI: 3 µM
OVCAR-4 ovarian
  GI50: 5.06 µM
  TGI: 17.8 µM
OVCAR-3 ovarian
  GI50: 3.27 µM
  TGI: 16.6 µM
HCC-2998 colon
  GI50: 1.77 µM
  TGI: 3.38 µM
RXF 393 renal
  GI50: 1.38 µM
  TGI: 3.48 µM
EKVX NSCLC
  GI50: 3.93 µM
  TGI: 15.9 µM
SK-MEL-2 melanoma
  GI50: 1.83 µM
  TGI: 3.8 µM
SN12C renal
  GI50: 10.1 µM
  TGI: 22.8 µM

## Cc1c2c(nn1C)CSCc1cc(n(C)n1)CSc1cc(c3ccccc3c1)OCCCc1c(C(=O)O)n(C)c3c-2c(Cl)ccc13
MDA-MB-468 breast
  GI50: 0.185 µM
  TGI: 0.487 µM

## COc1cc(C(=O)NC2CCN(C)CC2)c(F)cc1Nc1ncc2c(n1)N(C1CCCC1)CC(F)(F)C(=O)N2C
MDA-MB-468 breast
  GI50: < 0.01 µM
  TGI: 0.633 µM

## C1CN(SSN2CCOCC2)CCO1
MDA-MB-468 breast
  GI50: > 100 µM
  TGI: > 100 µM

## CN1CC[C@@H](c2c(O)cc(O)c3c(=O)cc(-c4ccccc4Cl)oc23)[C@@H]1CO
MDA-MB-468 breast
  GI50: 0.251 µM
  TGI: 0.772 µM

## O=C(NC[C@H](O)CO)c1ccncc1Nc1ccc(I)cc1F
MDA-MB-468 breast
  GI50: > 10 µM and 12.1 µM
  TGI: > 66 µM

## Cn1cc(C2=C(c3cccc(OCC(O)CO)c3)C(=O)NC2=O)c2ccccc21 (stereo unspecified)
MDA-MB-468 breast
  GI50: > 25 µM
  TGI: > 25 µM

## Cc1cc(N2CCCC2)nc(N(CCNc2ccnc3cc(Cl)ccc23)Cc2ccco2)n1
MDA-MB-468 breast
  GI50: 1.96 µM
  TGI: 6.67 µM

## O=C(COc1ccc(/C=C2\Oc3ccccc3C2=O)cc1)Nc1nc2c(s1)CCCC2
MDA-MB-468 breast
  GI50: 0.309 µM
  TGI: 1.86 µM

## O=[N+]([O-])c1cccc([As]=[As]c2cccc([N+](=O)[O-])c2)c1 (stereo unspecified)
MDA-MB-468 breast
  GI50: 0.0529 µM
  TGI: 0.194 µM

## CC[C@H](CO)Nc1nc(NCc2ccccc2)n2ncc(C(C)C)c2n1
MDA-MB-468 breast
  GI50: 1.88 µM
  TGI: 5.19 µM

## CCCCN(CCCC)c1ccc(C(=N)c2ccc(N(CCCC)CCCC)cc2)cc1
MDA-MB-468 breast
  GI50: 0.189 µM
  TGI: 0.748 µM

## COc1ccc(/C=C2\CCCC3=C2NC(N)=NC3c2ccc(OC)c(OC)c2)cc1OC (stereo unspecified)
MDA-MB-468 breast
  GI50: 0.921 µM
  TGI: 8.84 µM

## O=C(/C=C/c1ccc([N+](=O)[O-])cc1)c1ccc2c3c(cccc13)CC2
MDA-MB-468 breast
  GI50: 2.98 µM
  TGI: 19.3 µM

## NC(=S)N/N=C/c1ncccc1N
MDA-MB-468 breast
  GI50: 1.89 µM
  TGI: 10.2 µM

## O=c1nc2oc3ccc4ccccc4c3cc-2s1
MDA-MB-468 breast
  GI50: 0.551 µM
  TGI: 19.5 µM

## CN(C)c1ccc2nc3ccc(=[N+](C)C)cc-3sc2c1
MDA-MB-468 breast
  GI50: 0.233 µM and 0.469 µM
  TGI: 1.01 µM and 3.63 µM

## CCOc1cc2ncc(C#N)c(Nc3ccc(OCc4ccccn4)c(Cl)c3)c2cc1NC(=O)/C=C/CN(C)C
MDA-MB-468 breast
  GI50: < 0.01 µM and 0.00501 µM
  TGI: 0.0415 µM and 0.0479 µM

## NC(=O)c1c(NC(=O)c2ccc3c(c2)OCO3)sc2c1CCC(=O)C2
MDA-MB-468 breast
  GI50: 1.96 µM
  TGI: 4.43 µM

## CCOc1ccccc1N=Nc1c(C)[nH]n(-c2nc(-c3ccccc3)cs2)c1=O
MDA-MB-468 breast
  GI50: 8.49 µM
  TGI: > 100 µM

## CS(=O)(=O)c1nccc(-c2c(-c3ccc(F)c(OCc4ccc(F)cc4)c3)nc3sccn23)n1
MDA-MB-468 breast
  GI50: 2.43 µM
  TGI: 7.03 µM

## O=C(Nc1cccc(NC(=O)Nc2cc(C(F)(F)F)ccc2Cl)c1)Nc1cc(C(F)(F)F)ccc1Cl
MDA-MB-468 breast
  GI50: 1.1 µM
  TGI: 7.24 µM

## COc1cc(C2c3cc4c(cc3OC(NNC(N)=O)C2C)OCO4)cc(OC)c1O (stereo unspecified)
MDA-MB-468 breast
  GI50: 7.5 µM
  TGI: > 100 µM

## CN(C)c1ccc2c(c1)OC(N)=C(C#N)C2c1ccc2c(c1)CCO2 (stereo unspecified)
MDA-MB-468 breast
  GI50: 0.117 µM
  TGI: 47.7 µM

## CCN(CC)Cc1ccc(Nc2nccc(-c3cnn4ncccc34)n2)cc1
MDA-MB-468 breast
  GI50: 0.035 µM
  TGI: 0.0975 µM

## COC(=O)c1cc2ccc(OC(C)=O)c(OC(C)=O)c2cn1
MDA-MB-468 breast
  GI50: 16.1 µM
  TGI: 33.5 µM

## Nc1[nH]nc2nc(-c3cccs3)cc(C(F)(F)F)c12
MDA-MB-468 breast
  GI50: > 17.1 µM
  TGI: > 25 µM

## CC1(C)[C@@H](OC(N)=O)[C@H]2O[C@H]2[C@]2(CO)[C@H]3CC[C@]4(C)[C@@H](c5ccc(=O)oc5)[C@@H](Cl)C[C@]4(O)C3=CC[C@@H]12
MDA-MB-468 breast
  GI50: 0.021 µM
  TGI: 0.0965 µM

## CC(C)(O)CC(=O)NCCn1ccc2ncnc(Nc3ccc(Oc4cccc(C(F)(F)F)c4)c(Cl)c3)c21
MDA-MB-468 breast
  GI50: 0.272 µM
  TGI: 4.06 µM

## COc1ccc(C(=O)c2cc3c(N)c(C(=O)Nc4cccc5ccccc45)sc3nc2C)cc1
MDA-MB-468 breast
  GI50: 0.22 µM
  TGI: > 50 µM

## COc1cccc(-n2ncc3c(N/N=C/c4ccncc4)ncnc32)c1
MDA-MB-468 breast
  GI50: 5.15 µM
  TGI: > 25 µM

## COc1ccc(C(=O)/C=C/c2c(Cl)c3c(c(OC)c2Cl)OCC(=O)N3)cc1
MDA-MB-468 breast
  GI50: 1.69 µM
  TGI: 3.7 µM

## O=C(Nc1ccc(Cl)cc1)Nc1ccc(Nc2nncc3ccccc23)cc1
MDA-MB-468 breast
  GI50: 2.57 µM
  TGI: 9.47 µM

## Cc1ccc(CNc2c3ccccc3nc3cc(NC(=O)CCN4CCCC4)ccc23)cc1
MDA-MB-468 breast
  GI50: 0.449 µM
  TGI: 1.63 µM

## O=C(Nc1ccc(Cl)c(Cl)c1)O/N=C\c1c(Cl)ccc([N+](=O)[O-])c1Cl
MDA-MB-468 breast
  GI50: 1.08 µM
  TGI: 2.72 µM

From PubChem BioAssay (NCI)
